Earlier results, collected in patent US20120115828A1 (APEX LABORATORIES PRIVATE LIMITED, priority 2009, published 2012).

In the case of `CC(=O)OCC(=O)[C@@]1(O)CC[C@H]2[C@@H]3CCC4=CC(=O)CC[C@]4(C)[C@H]3[C@@H](O)C[C@@]21C` [Hydrocortisone Acetate], the Solubility in alcohol (alcohol) is given as “slightly soluble”, the Solubility in chloroform is given as “slightly soluble” and the Solubility in water is given as “insoluble”.

For `Clc1ccc(COC(Cn2ccnc2)c2ccc(Cl)cc2Cl)c(Cl)c1` (centres unmarked) [Miconazole Nitrate, 1-[2-(2,4-Dichlorophenyl)-2-[(2,4-dichlorophenyl)methoxy]ethyl]-1H-imidazole], the Solubility in chloroform is listed as “slightly soluble”, the “Solubility in ethanol (95%)” value (ethanol (95%)) is listed as “slightly soluble” and the Solubility in ether (ether) is listed as “very slightly soluble”. For the same compound, the Solubility in methanol (methanol) was “freely soluble” and the Solubility in water was “very slightly soluble”.
